Data set [1] in a line: Solid-liquid equilibrium temperature. The following applies: 101.3 kPa, Conductivity measurements.
Data set [2] is described as follows: excess molar enthalpy (molar enthalpy of mixing); xn = mol fraction of the nth substance listed. The following applies: 505 K, 101 kPa, Liquid, Calvet calorimetry.

Drawing on the NIST ThermoML archive (doi:10.1016/j.tca.2005.11.022), this text covers Solid-liquid equilibrium temperature and excess molar enthalpy for three compounds.

± gives the expanded uncertainty stated by the source.

Take `O=S(=O)([O-])O.[K+]` [hydrogen potassium sulfate]: the Solid-liquid equilibrium temperature in data set [1] (Crystal 1) stood at 488 ± 1 K.

On to `O=S(=O)([O-])O.[Na+]` [sulfuric acid, monosodium salt], for which the Solid-liquid equilibrium temperature in data set [1] (Crystal) came out at 458 ± 1 K.

Take `O=S(=O)([O-])O.[Na+]` [sulfuric acid, monosodium salt] + O=S(=O)([O-])O.[K+]: the excess molar enthalpy was -0.043 ± 0.0043 kcal/mol in data set [2] (x2 = 0.1135); -0.1 ± 0.01 kcal/mol in data set [2] (x2 = 0.2137); -0.126 ± 0.0127 kcal/mol in data set [2] (x2 = 0.4029); -0.145 ± 0.0146 kcal/mol in data set [2] (x2 = 0.4978); -0.143 ± 0.0143 kcal/mol in data set [2] (x2 = 0.5883); -0.123 ± 0.0124 kcal/mol in data set [2] (x2 = 0.7186). Besides, the excess molar enthalpy in data set [2] (x2 = 0.8521) was -0.069 ± 0.00693 kcal/mol.
